# Data published in PubChem BioAssay AID1918993 (Molecular Pharmacology Branch, DTP, NCI, 2023).
# System: 233499-124-R-J3-PDC complex spheroid growth
# Assay: Anticancer human tumor 233499-124-R-J3-PDC patient-derived colon adenocarcinoma cell line growth inhibition [AhR]
# Conditions: for IC50: curve of first compound; for viability, T/C: stronger effect = lower value
# How it was run: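 Agents were dosed in half-log steps down from roughly clinical Cmax, or from 10 microM where Cmax was unknown, alone and with AhR antagonists. Read-out: percent test/control growth of tumor spheroids containing HUVEC and MSC stromal cells.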
# [1] = second compound 0.1 µM, first compound 0.0316 µM
# [2] = second compound 0.1 µM, first compound 0.1 µM
# [3] = second compound 0.1 µM, first compound 0.316 µM
# [4] = second compound 0.1 µM, first compound 1 µM
# [5] = second compound 0.316 µM, first compound 0.0316 µM
# [6] = second compound 0.316 µM, first compound 0.1 µM
# [7] = second compound 0.316 µM, first compound 0.316 µM
# [8] = second compound 0.316 µM, first compound 1 µM
# [9] = second compound 1 µM, first compound 0.0316 µM
# [10] = second compound 1 µM, first compound 0.1 µM
# [11] = second compound 1 µM, first compound 0.316 µM
# [12] = second compound 1 µM, first compound 1 µM
# [13] = second compound 3.16 µM, first compound 0.0316 µM
# [14] = second compound 3.16 µM, first compound 0.1 µM
# [15] = second compound 3.16 µM, first compound 0.316 µM
# [16] = second compound 3.16 µM, first compound 1 µM
# [17] = second compound 10 µM, first compound 0.0316 µM
# [18] = second compound 10 µM, first compound 0.1 µM
# [19] = second compound 10 µM, first compound 0.316 µM
# [20] = second compound 10 µM, first compound 1 µM
# [21] = second compound 0.1 µM, first compound 3.16 µM
# [22] = second compound 0.1 µM, first compound 10 µM
# [23] = second compound 0.316 µM, first compound 3.16 µM
# [24] = second compound 0.316 µM, first compound 10 µM
# [25] = second compound 1 µM, first compound 3.16 µM
# [26] = second compound 1 µM, first compound 10 µM
# [27] = second compound 3.16 µM, first compound 3.16 µM
# [28] = second compound 3.16 µM, first compound 10 µM
# [29] = second compound 10 µM, first compound 3.16 µM
# [30] = second compound 10 µM, first compound 10 µM
# [31] = second compound 0.1 µM, first compound 0.00949 µM
# [32] = second compound 0.1 µM, first compound 0.03 µM
# [33] = second compound 0.1 µM, first compound 0.0949 µM
# [34] = second compound 0.1 µM, first compound 0.3 µM
# [35] = second compound 0.316 µM, first compound 0.00949 µM
# [36] = second compound 0.316 µM, first compound 0.03 µM
# [37] = second compound 0.316 µM, first compound 0.0949 µM
# [38] = second compound 0.316 µM, first compound 0.3 µM
# [39] = second compound 1 µM, first compound 0.00949 µM
# [40] = second compound 1 µM, first compound 0.03 µM
# [41] = second compound 1 µM, first compound 0.0949 µM
# [42] = second compound 1 µM, first compound 0.3 µM
# [43] = second compound 3.16 µM, first compound 0.00949 µM
# [44] = second compound 3.16 µM, first compound 0.03 µM
# [45] = second compound 3.16 µM, first compound 0.0949 µM
# [46] = second compound 3.16 µM, first compound 0.3 µM
# [47] = second compound 10 µM, first compound 0.00949 µM
# [48] = second compound 10 µM, first compound 0.03 µM
# [49] = second compound 10 µM, first compound 0.0949 µM
# [50] = second compound 10 µM, first compound 0.3 µM
# 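Note: spheroids exposed to agents for seven days before reading.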
smiles,measurement,setting,value
CC1COCCN1c1cc(-c2ccnn2C)c2ccnc(-c3ccn[nH]3)c2n1 (stereo not given) + Cc1cncc(-c2nc(NCCc3c[nH]c4ccccc34)c3ncn(C(C)C)c3n2)c1,IC50,second compound 0.1 µM,546 nM
same,IC50,second compound 0.316 µM,525 nM
same,IC50,second compound 1 µM,> 1000 nM
same,IC50,second compound 3.16 µM,293 nM
same,IC50,second compound 10 µM,< 3.16 nM
same,"viability, T/C","second compound 0.1 µM, first compound 0.00316 µM",106%
same,"viability, T/C","second compound 0.1 µM, first compound 0.01 µM",89.7%
same,"viability, T/C",[1],102%
same,"viability, T/C",[2],74.6%
same,"viability, T/C",[3],62.6%
same,"viability, T/C",[4],37.8%
same,"viability, T/C","second compound 0.316 µM, first compound 0.00316 µM",85.3%
same,"viability, T/C","second compound 0.316 µM, first compound 0.01 µM",92.6%
same,"viability, T/C",[5],76.2%
same,"viability, T/C",[6],81.1%
same,"viability, T/C",[7],60.2%
same,"viability, T/C",[8],35.8%
same,"viability, T/C","second compound 1 µM, first compound 0.00316 µM",66.5%
same,"viability, T/C","second compound 1 µM, first compound 0.01 µM",63%
same,"viability, T/C",[9],69.3%
same,"viability, T/C",[10],72.9%
same,"viability, T/C",[11],53.5%
same,"viability, T/C",[12],50.2%
same,"viability, T/C","second compound 3.16 µM, first compound 0.00316 µM",66.7%
same,"viability, T/C","second compound 3.16 µM, first compound 0.01 µM",74.1%
same,"viability, T/C",[13],73.1%
same,"viability, T/C",[14],63.8%
same,"viability, T/C",[15],49.4%
same,"viability, T/C",[16],40.2%
same,"viability, T/C","second compound 10 µM, first compound 0.00316 µM",3.13%
same,"viability, T/C","second compound 10 µM, first compound 0.01 µM",3.32%
same,"viability, T/C",[17],3.34%
same,"viability, T/C",[18],4.58%
same,"viability, T/C",[19],3.11%
same,"viability, T/C",[20],5.96%
CC1COCCN1c1cc(C2(S(C)(=N)=O)CC2)nc(-c2ccnc3[nH]ccc23)n1 (stereo not given) + Cc1cncc(-c2nc(NCCc3c[nH]c4ccccc34)c3ncn(C(C)C)c3n2)c1,IC50,second compound 0.1 µM,> 10000 nM
same,IC50,second compound 0.316 µM,> 10000 nM
same,IC50,second compound 1 µM,> 10000 nM
same,IC50,second compound 3.16 µM,> 10000 nM
same,IC50,second compound 10 µM,< 31.6 nM
same,"viability, T/C",[1],99%
same,"viability, T/C",[2],90.3%
same,"viability, T/C",[3],95.1%
same,"viability, T/C",[4],95.1%
same,"viability, T/C",[21],93%
same,"viability, T/C",[22],81.2%
same,"viability, T/C",[5],80.7%
same,"viability, T/C",[6],71%
same,"viability, T/C",[7],61.6%
same,"viability, T/C",[8],91.2%
same,"viability, T/C",[23],92.7%
same,"viability, T/C",[24],78.1%
same,"viability, T/C",[9],73.9%
same,"viability, T/C",[10],70.1%
same,"viability, T/C",[11],78.7%
same,"viability, T/C",[12],77.2%
same,"viability, T/C",[25],63.3%
same,"viability, T/C",[26],64.7%
same,"viability, T/C",[13],81.8%
same,"viability, T/C",[14],76%
same,"viability, T/C",[15],81.8%
same,"viability, T/C",[16],83.1%
same,"viability, T/C",[27],71.3%
same,"viability, T/C",[28],59.7%
same,"viability, T/C",[17],11.2%
same,"viability, T/C",[18],14.3%
same,"viability, T/C",[19],20%
same,"viability, T/C",[20],15.1%
same,"viability, T/C",[29],14%
same,"viability, T/C",[30],11.1%
COc1ccc([C@@H](O)c2cc(-c3ncnc4cc(N5CCOCC5)ccc34)c(F)cc2Cl)nn1 + Cc1cncc(-c2nc(NCCc3c[nH]c4ccccc34)c3ncn(C(C)C)c3n2)c1,IC50,second compound 0.1 µM,> 10000 nM
same,IC50,second compound 0.316 µM,> 10000 nM
same,IC50,second compound 1 µM,> 10000 nM
same,IC50,second compound 3.16 µM,> 10000 nM
same,IC50,second compound 10 µM,< 31.6 nM
same,"viability, T/C",[1],87.6%
same,"viability, T/C",[2],82.5%
same,"viability, T/C",[3],84.5%
same,"viability, T/C",[4],90.5%
same,"viability, T/C",[21],70.3%
same,"viability, T/C",[22],64.1%
same,"viability, T/C",[5],95.3%
same,"viability, T/C",[6],77.3%
same,"viability, T/C",[7],79.8%
same,"viability, T/C",[8],64.5%
same,"viability, T/C",[23],70.4%
same,"viability, T/C",[24],67.7%
same,"viability, T/C",[9],75.7%
same,"viability, T/C",[10],73.3%
same,"viability, T/C",[11],65.7%
same,"viability, T/C",[12],66.4%
same,"viability, T/C",[25],60.8%
same,"viability, T/C",[26],67.5%
same,"viability, T/C",[13],74.2%
same,"viability, T/C",[14],72.7%
same,"viability, T/C",[15],68.1%
same,"viability, T/C",[16],69%
same,"viability, T/C",[27],61.4%
same,"viability, T/C",[28],71.7%
same,"viability, T/C",[17],1.87%
same,"viability, T/C",[18],1.89%
same,"viability, T/C",[19],4.9%
same,"viability, T/C",[20],2.28%
same,"viability, T/C",[29],1.45%
same,"viability, T/C",[30],4.49%
Nc1ncn(C2CC(O)C(CO)S2)c(=O)n1 (stereo not given) + Cc1cncc(-c2nc(NCCc3c[nH]c4ccccc34)c3ncn(C(C)C)c3n2)c1,IC50,second compound 0.1 µM,> 300 nM
same,IC50,second compound 0.316 µM,> 300 nM
same,IC50,second compound 1 µM,> 300 nM
same,IC50,second compound 3.16 µM,> 300 nM
same,IC50,second compound 10 µM,< 0.949 nM
same,"viability, T/C","second compound 0.1 µM, first compound 0.000949 µM",89.6%
same,"viability, T/C","second compound 0.1 µM, first compound 0.003 µM",96.5%
same,"viability, T/C",[31],89.8%
same,"viability, T/C",[32],93.9%
same,"viability, T/C",[33],103%
same,"viability, T/C",[34],103%
same,"viability, T/C","second compound 0.316 µM, first compound 0.000949 µM",72.9%
same,"viability, T/C","second compound 0.316 µM, first compound 0.003 µM",83%
same,"viability, T/C",[35],86.9%
same,"viability, T/C",[36],89.6%
same,"viability, T/C",[37],96.9%
same,"viability, T/C",[38],97.1%
same,"viability, T/C","second compound 1 µM, first compound 0.000949 µM",77.3%
same,"viability, T/C","second compound 1 µM, first compound 0.003 µM",66.2%
same,"viability, T/C",[39],84.6%
same,"viability, T/C",[40],85.6%
same,"viability, T/C",[41],89.1%
same,"viability, T/C",[42],83.4%
same,"viability, T/C","second compound 3.16 µM, first compound 0.000949 µM",101%
same,"viability, T/C","second compound 3.16 µM, first compound 0.003 µM",94.3%
same,"viability, T/C",[43],97.1%
same,"viability, T/C",[44],103%
same,"viability, T/C",[45],104%
same,"viability, T/C",[46],99.4%
same,"viability, T/C","second compound 10 µM, first compound 0.000949 µM",8.85%
same,"viability, T/C","second compound 10 µM, first compound 0.003 µM",8.14%
same,"viability, T/C",[47],14.4%
same,"viability, T/C",[48],16.2%
same,"viability, T/C",[49],20.1%
same,"viability, T/C",[50],26.1%
O=C(C=Cn1cnc(-c2cc(C(F)(F)F)cc(C(F)(F)F)c2)n1)NNc1cnccn1 + Cc1cncc(-c2nc(NCCc3c[nH]c4ccccc34)c3ncn(C(C)C)c3n2)c1,IC50,second compound 0.1 µM,> 3000 nM
same,IC50,second compound 0.316 µM,> 3000 nM
same,IC50,second compound 1 µM,> 3000 nM
same,IC50,second compound 3.16 µM,> 3000 nM
same,IC50,second compound 10 µM,< 9.49 nM
same,"viability, T/C",[31],99.6%
same,"viability, T/C",[32],108%
same,"viability, T/C",[33],102%
same,"viability, T/C",[34],89.3%
same,"viability, T/C","second compound 0.1 µM, first compound 0.949 µM",100%
same,"viability, T/C","second compound 0.1 µM, first compound 3 µM",68.2%
same,"viability, T/C",[35],98.5%
same,"viability, T/C",[36],94.9%
same,"viability, T/C",[37],95.7%
same,"viability, T/C",[38],106%
same,"viability, T/C","second compound 0.316 µM, first compound 0.949 µM",53.5%
same,"viability, T/C","second compound 0.316 µM, first compound 3 µM",54%
same,"viability, T/C",[39],88.5%
same,"viability, T/C",[40],80.9%
same,"viability, T/C",[41],99.1%
same,"viability, T/C",[42],96.3%
same,"viability, T/C","second compound 1 µM, first compound 0.949 µM",74%
same,"viability, T/C","second compound 1 µM, first compound 3 µM",58.3%
same,"viability, T/C",[43],76.3%
same,"viability, T/C",[44],81.6%
same,"viability, T/C",[45],93.2%
same,"viability, T/C",[46],87%
same,"viability, T/C","second compound 3.16 µM, first compound 0.949 µM",60.7%
same,"viability, T/C","second compound 3.16 µM, first compound 3 µM",59.6%
same,"viability, T/C",[47],21.2%
same,"viability, T/C",[48],35.3%
same,"viability, T/C",[49],30.8%
same,"viability, T/C",[50],22%
same,"viability, T/C","second compound 10 µM, first compound 0.949 µM",28.9%
same,"viability, T/C","second compound 10 µM, first compound 3 µM",25.1%
